Patent publication US7897610B2, “Use of benzo[c]quinolizinium derivatives for the treatment of diseases that are linked to smooth muscle cell constriction” (Centre National de la Recherche Scientifique, priority 2002, dated 2011)
Entries after “also recorded” stand apart in the source; their conditions may differ.

Key:
[1] = tested on: aorta rings with endothelium pre-contracted by arterenol; test: Isolated organ technique: relaxation of rat aorta rings pre-contracted by arterenol; type: cell-based; settings: 10 μM, arterenol 10^-4 M, after 2 hours 30 minutes
Experimental: The experiments are carried out on the thoracic aorta of male rats of Wistar strain weighing 200 to 250 g, 7 to 8 weeks of age. The rat is stunned then placed in the supine position. After thoracotomy, the segment of the aorta comprised between the diaphragm and the right aortic arch is excised. The portion of aorta is immediately placed in a buffered physiological solution of modified Krebs type. The aorta is sectioned into 5 mm rings. The aorta rings, after dissection, are suspended between two hooks one of which is fixed and the other is mobile. […] The thermostatically-controlled enclosure is supplied by a water bath. The mobile hook is suspended with a sensor connected to the interface (electromechanical transducer). This interface is connected on the one hand to an amplifier (amplification of the signal) and on the other hand to a computer (display and analysis of the signal). […] The Data Analyst and Prism 3.0 programs allow analysis of the results. After mounting the aorta rings in the experimental device, these are stretched at a basal tension of 2.5 g. This tension corresponds to the optimum point of their tension/length relationship. Waiting for a stable state in the reference physiological medium is carried out over a period of approximately 1 hour with washing every 20 minutes. Following this equilibration period, the different experiments are carried out. […]

[2] = tested on: anionic transport in smooth muscle cells of aorta rings; test: Iodide efflux (125I) on rat aorta rings; type: cell-based; parameters: key to iodide discharge speed / iodide discharge speed after stimulation: Ln(125I t1/125I t2)/(t1−t2), per min; key to increase of discharge speed over basal state: difference of Ln(125I t1/125I t2)/(t1−t2) values, per min; settings: for iodide discharge speed / increase of discharge speed over basal state: hyperpotassium medium
Experimental: The iodide efflux technique, perfected by Venglarick et al. (1990), allows measurement of the movement of ions and is described in detail in Derand et al. (2001).
The aorta rings of equivalent size, are incubated in 1 ml of filling solution composed of physiological solution of modified Krebs type or hyperpotassium solution (80 mM KCl) supplemented with 1.5 μl/ml of Na ^125I and 0.1 μl/ml of KI. After incubation for 1 hour 30 minutes at 37° C., 4 successive rinsings of two minutes are carried out in 1 ml of appropriate physiological solution (normal Krebs or hyperpotassium solution). An iodide efflux kinetics of the aorta rings is carried out for 12 min. After each minute, the content of each well is sampled and placed in hemolysis tubes, and radioactivity is counted with a gamma counter (Packard, Cobra II). At the 12th minute, the aorta rings are solubilized in Sodium Dodecyl Sulphate (SDS 0.1%)+NaOH (0.1 M). This stage allows the recovery of the residual radioactivity by cell destruction.
The total radioactivity of the cells is calculated by the addition of the counts per minute (cpm) of each collected fraction and of the cpm of the solubilized fraction (residual radioactivity). The curves are plotted expressing the efflux as a percentage of the cell content accumulated in the medium as a function of time. For example, the value attributed at time tn, corresponds to: 100×(Σ cpm obtained from t0 to tn)/total radioactivity. The instantaneous discharge speed is presented according to the formula Ln(^125It1/^125It2)/(t1−t2), where t1 and t2 are two successive times and ^125It1 and ^125It2 are the effluxes measured at time t1 and t2. In order to evaluate the effect of a substance, the activation ratio r=discharge speed after stimulation/discharge speed before stimulation is determined. The results (average±SEM) are compared using Student's statistical test for a paired value.

[3] = tested on: aorta rings of Cftr+/+ mice; test: Vasorelaxation of aorta rings contracted by 80 mM K+, Cftr+/+ mice; type: cell-based, mouse
Source text: (§1) CFTR is detected at the level of its messenger RNA and at the level of protein in the smooth muscles. As negative control the inventors used musculus skeleti of rat at the level of which neither the messenger nor the protein are present. CFTR is detectable in the smooth muscle by immunoprecipitation and phosphorylation in vitro by the protein kinase A. The pharmacology of CFTR has been studied using iodide efflux in muscle cell freshly dissociated from rat aorta. […] Its inhibition profile is similar to that of epithelial CFTR (sensitivity to glibenclamide and DPC but not to Calixarene). […] Moreover, a greater contraction is observed in the KO animals in response to the constricting agents.
(§2) a, graphs showing the vasorelaxation induced by the VIP neuropeptide (Vasoactive Intestinal Polypeptide) of aortas without endothelium of Cftr^+/+ (left) and Cftr^−/− (right) mice. The aorta rings are reversibly contracted by a hyperpotassium solution (solution of 80 mM K^+) then the effect of 300 nM VIP is measured. The absence of endothelium is verified by the addition of acetylcholine (ACh, 10^−5 M).
(§3) This effect is absent in Cftr^−/− mice (n=6). Average±SEM*P<0.05, ** P<0.01, *** P<0.001.

[4] = tested on: aorta rings of Cftr-/- mice; test: Vasorelaxation of aorta rings contracted by 80 mM K+, Cftr-/- mice; type: cell-based, mouse; settings: pre-contracted aorta
Source text: as §1, §2, §3

human mammary arteries = test: Vasorelaxant effect on human mammary arteries; type: cell-based
Source text: The pharmacological effects of the compounds of the benzo[c]quinolizinium family, CFTR activators: 6-hydroxy-10-chlorobenzo[c]quinolizinium chloride (reference name: MPB-07) and 5-butyl-6-hydroxy-10-chlorobenzo[c]quinolizinium chloride (reference name: MPB-91), were studied on aorta rings isolated from rats and from human mammary arteries.

CFTR = molecular target: T1, CFTR (Homo sapiens, UniProt P13569); settings: epithelial cells; cited from earlier work
T1 construct: In cells expressing the CFTR protein in an endogenous manner
T1 sequence (P13569 whole entry): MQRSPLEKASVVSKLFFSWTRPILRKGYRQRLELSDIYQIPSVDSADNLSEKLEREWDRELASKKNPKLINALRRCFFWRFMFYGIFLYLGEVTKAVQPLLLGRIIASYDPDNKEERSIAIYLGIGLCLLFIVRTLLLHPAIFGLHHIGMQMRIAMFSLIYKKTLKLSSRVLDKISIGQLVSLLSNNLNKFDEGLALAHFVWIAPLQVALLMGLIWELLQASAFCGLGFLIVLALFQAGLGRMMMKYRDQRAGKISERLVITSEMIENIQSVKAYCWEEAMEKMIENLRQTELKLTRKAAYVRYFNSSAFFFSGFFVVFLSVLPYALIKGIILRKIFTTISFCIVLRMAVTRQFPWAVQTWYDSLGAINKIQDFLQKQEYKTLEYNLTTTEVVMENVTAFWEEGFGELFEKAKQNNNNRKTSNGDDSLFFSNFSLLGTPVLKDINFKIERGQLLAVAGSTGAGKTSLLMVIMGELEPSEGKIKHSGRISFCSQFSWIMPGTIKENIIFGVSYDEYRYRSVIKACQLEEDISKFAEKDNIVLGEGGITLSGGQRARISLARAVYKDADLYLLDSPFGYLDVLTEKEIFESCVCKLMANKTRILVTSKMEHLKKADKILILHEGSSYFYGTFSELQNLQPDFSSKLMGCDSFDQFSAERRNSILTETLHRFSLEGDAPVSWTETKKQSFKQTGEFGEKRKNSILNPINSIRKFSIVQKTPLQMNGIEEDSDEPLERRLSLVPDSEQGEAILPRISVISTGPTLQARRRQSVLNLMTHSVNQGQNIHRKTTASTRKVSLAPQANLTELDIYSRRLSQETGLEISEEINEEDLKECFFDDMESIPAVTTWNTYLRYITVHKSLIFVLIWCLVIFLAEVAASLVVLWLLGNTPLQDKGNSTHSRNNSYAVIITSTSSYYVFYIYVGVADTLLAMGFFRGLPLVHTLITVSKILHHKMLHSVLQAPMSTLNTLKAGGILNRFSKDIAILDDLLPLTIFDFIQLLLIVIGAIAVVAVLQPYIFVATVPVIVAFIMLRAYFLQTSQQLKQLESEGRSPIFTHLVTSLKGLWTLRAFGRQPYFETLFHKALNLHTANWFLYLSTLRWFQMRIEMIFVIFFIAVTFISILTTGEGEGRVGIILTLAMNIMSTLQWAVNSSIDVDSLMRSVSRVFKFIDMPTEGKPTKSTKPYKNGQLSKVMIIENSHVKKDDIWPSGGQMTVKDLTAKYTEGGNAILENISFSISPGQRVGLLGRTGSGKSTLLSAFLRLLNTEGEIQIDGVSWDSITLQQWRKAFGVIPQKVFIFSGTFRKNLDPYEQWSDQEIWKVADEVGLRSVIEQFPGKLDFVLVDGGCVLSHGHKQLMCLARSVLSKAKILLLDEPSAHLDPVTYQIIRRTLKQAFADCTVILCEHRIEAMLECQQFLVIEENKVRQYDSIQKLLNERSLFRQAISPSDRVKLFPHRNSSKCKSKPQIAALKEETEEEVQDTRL

Oc1cc2cccc[n+]2c2c(Cl)cccc12.[Cl-] [MPB-07, 6-hydroxy-10-chlorobenzo[c]quinolizinium chloride]
relaxation [1]: 90±9% | iodide discharge speed ([2]; L-NAME 10^-4 M, 250 μM, 1 minute after addition): 0.103±0.017 | iodide discharge speed ([2]; L-NAME 10^-4 M, 250 μM, 2 minutes after addition): 0.110±0.015 | iodide discharge speed ([2]; L-NAME 10^-4 M, 250 μM, 3 minutes after addition): 0.119±0.011 | increase of discharge speed over basal state ([2]; L-NAME, 1 minute): 0.044 | increase of discharge speed over basal state ([2]; L-NAME, 2 minutes): 0.051 | increase of discharge speed over basal state ([2]; L-NAME, 3 minutes): 0.060 | activation of anionic transport / discharge speed ([2]; smooth muscle cells of aorta rings): activates anionic transport | iodide discharge speed ([2]; without endothelium, 250 μM, 1 minute after addition): 0.076±0.008 | iodide discharge speed ([2]; without endothelium, 250 μM, 2 minutes after addition): 0.099±0.013 | increase of discharge speed over basal state ([2]; without endothelium, 1 minute): 0.023 | increase of discharge speed over basal state ([2]; without endothelium, 2 minutes): 0.046 | iodide discharge speed after stimulation ([2]; without endothelium, normal physiological medium, 250 μM, n=3): 0.076±0.016 | effect on pre-contracted aorta ([3]; Cftr+/+ rat and mouse tissues): relaxation of the pre-contracted aorta | IC50 ([3]; Mus musculus, aorta rings contracted by 80 mM K+, n=6): 37 ± 1.17 µM | vasorelaxation in Cftr-/- mice [4]: very considerably reduced; also recorded: absent | vasorelaxant effect (human mammary arteries): reversible and slow dose-dependent vasorelaxant effect | activity on the CFTR channel (CFTR): activators of this ion channel
